Measurements published in US20150352038A1, “A DOSAGE FORM FOR ADMINISTERING AN ACTIVE PRINCIPLE FOR ACCELERATED SLEEP INDUCTION AND/OR FOR TREATING SLEEP DISORDERS AND/OR FOR TREATING A CENTRAL NERVOUS SYSTEM DISORDER” (priority 2013, published 2015).
Values after ≈ are worked out from the molar mass of the structure shown. Where a name gives a salt, the structure may show the parent alone.

What was measured:
[1] = oral; % of the ingested/administered dose; cited from earlier work
[2] = cited from earlier work
[3] = Bioavailability after oral administration; assay type: in vivo
[4] = Time to onset of calming / sedative / sleep-inducing effect; assay type: in vivo; conditions: hydro-alcoholic solution of the invention via the oral mucous membrane
[5] = cited from earlier work; remark: listed apart in the source
plasma proteins = conditions: cited from earlier work; for bonded to plasma proteins: in the blood stream
[6] = Stability in alcohol solution; assay type: physicochemical; conditions: degree of alcohol starting from 35°
Procedure: In the studies, the doses normally administered orally, at bedtime, varied over the range 0.3 mg to 5 mg. High doses of Melatonin may exert a negative paradoxical action that propagates to phases that are not phases of responding to Melatonin.

[7] = administered orally, doses of 5 mg or 10 mg; cited from earlier work

## COc1ccc2cccc(CCNC(C)=O)c2c1 [Agomelatine]
[1]
  bioavailability when taken orally: less than 5%
[2]; in vivo
  half-life in the organism: less than 2 h
[3]
  fraction of the orally administered dose destroyed / lost: 95%

## Cc1nnc2n1-c1sc(Br)cc1C(c1ccccc1Cl)=NC2 [Brotizolam]
[1]
  bioavailability when taken orally: around 50%
[2]; in vivo
  half-life in the organism: 4.4 h

## CN1CCC(=C2c3ccccc3C=Cc3ccccc32)CC1 [Cyproheptadine]
[1]
  bioavailability when taken orally: ~25%
[2]; compared with Doxylamine
  half-life, compared in words: longer than the half-life of Doxylamine

## CN(C)CCOC(C)(c1ccccc1)c1ccccn1 (stereo not shown) [Doxylamine]
[4]
  time until calming effect / drowsiness appears, in words: within a few minutes
[5]; ethanol
  solubility in ethanol, in words: easily soluble in ethanol
[1]
  bioavailability when taken orally: 24.7%
[2]; in vivo
  half-life in the organism: around 3.5 h

## CN1CCN(C(=O)O[C@H]2c3nccnc3C(=O)N2c2ccc(Cl)cn2)CC1 [Eszopiclone]
Plasma proteins
  bonded to plasma proteins: 60%
[2]; in vivo
  half-life in the organism: 6 h

## COc1ccc2[nH]cc(CCNC(C)=O)c2c1 [Melatonin, N-Acetyl-5-Methoxytryptamine]
[5]; ethanol
  solubility in ethanol, in words: very soluble in ethanol
[1]
  bioavailability when taken orally: ~15%
[6]
  stability in alcohol solution: increases with increasing degree of alcohol
[2]; in vivo
  half-life: greater than 50 min

## Cc1ncc2n1-c1ccc(Cl)cc1C(c1ccccc1F)=NC2 [Midazolam]
[5]; ethanol
  solubility in ethanol, in words: freely soluble in ethanol
[5]; water
  solubility in water: 0.024 mg/mL (≈ 0.0737 mM)
[1]
  bioavailability when taken orally: 36%
Plasma proteins
  bonding to plasma proteins, in words: bonds strongly to plasma proteins

## Cc1ccc(-c2nc3ccc(C)cn3c2CC(=O)N(C)C)cc1 [Zolpidem tartrate]
[5]
  solubility in water and in ethanol/alcohol, in words: less soluble in water and in ethanol than Zolpidem base

## Cc1ccc(-c2nc3ccc(C)cn3c2CC(=O)N(C)C)cc1 [Zolpidem]
[4]
  time until calming effect / drowsiness appears, in words: within only a few minutes
[5]; ethanol
  solubility in ethanol: 50 mg/mL (≈ 163 mM)
  solubility in ethanol, in words: quite soluble in ethanol
[1]
  bioavailability when taken orally: ≤ 70%
[7]
  time until effect is perceptible: at least 15 min
Plasma proteins
  bonded to plasma proteins: 92%
[2]; in vivo
  half-life in the organism: 2 to 3 h

## CN1CCN(C(=O)OC2c3nccnc3C(=O)N2c2ccc(Cl)cn2)CC1 (stereo not shown) [Zopiclone]
[5]
  solubility in water and in ethanol/alcohol, in words: not very soluble in water and alcohol

## (S)—N-(2-(1,6,7,8-tetrahydro-2H-indeno-(5,4)furan-8-yl)ethyl)propionamide [Ramelteon]
[5]; ethanol
  solubility in ethanol, in words: very easily soluble in ethanol
[1]
  bioavailability when taken orally: 1.8%
Plasma proteins
  bonded to plasma proteins: 82%
[3]
  fraction of the orally administered dose destroyed / lost: 98.2%
